Marks after values point to notes of the source that are not given here.
Experiments:
[1] = Dynamic light scattering: LNP particle size and PDI; format: physicochemical; details: for Particle Size (nm) / PDI: LNP compositions for in vivo mouse study; for Particle Size (nm): four formulations (F1-F4) of the lipid compound pooled, or pools of four compounds (sixteen compositions); for PDI: four formulations (F1-F4) pooled, or pools of four compounds; for PDI N/P:6 / Size (nm) N/P:6 / PDI N/P:3 / Size (nm) N/P:3: LNP
Protocol: (§1) Lipids and active ingredients (e.g., RNA, DNA, etc.) were assembled into LNPs using microfluidic mixing. An ethanol phase was prepared by solubilizing ionizable lipids (i.e., lipid compounds), phospholipids (e.g., DSPC), cholesterol, and PEG lipids in ethanol, at predetermined mol % ratios given in Table 2. An aqueous phase was prepared by diluting a nucleic acid cargo (e.g., firefly luciferase mRNA) in an acidified buffer (pH 4.0 citrate buffer, 50 mM). A chip with microfluidic mixing architecture (e.g., toroidal mixer) was used to mix the two phases at predetermined flow rate ratios (e.g., 9 ml/min for the aqueous phase and 3 ml/min for the ethanol phase). Resulting LNPs comprising the lipids and encapsulating the nucleic acid cargo were dialyzed against PBS pH 7.4 for 2 hours at room temperature in a 20 kDa MWCO dialysis membrane. Then, PBS was refreshed to continue dialysis overnight at 2-8 TC. Upon completion of the buffer exchange, LNPs were optionally concentrated using a ultracentrifugal unit with a 10-100 kDa MWCO membrane.
d. Dynamic Light Scattering
LNPs were diluted with PBS pH 7.4 to predetermined dilution ranges based on the process step and LNP concentration. Following mixing, the particle size and PDI were measured by a dynamic light scattering instrument.

[2] = Plate-based fluorescence (RiboGreen) assay: nucleic acid cargo content and encapsulation efficiency of LNPs; format: physicochemical; details: for EE % / mRNA Content: LNP compositions for in vivo mouse study, four formulations (F1-F4) pooled, or pools of four compounds; for EE (%) N/P:6 / EE (%) N/P:3: LNP
Protocol: as §1
c. Plate-Based Fluorescence (RiboGreen) Assay
Nucleic acid cargos in the LNPs were quantified by RiboGreen assay, against a nucleic acid standard curve. LNPs encapsulating nucleic acid cargo were mixed with 1× Tris-EDTA (TE) and 2% triton in TE, separately, to achieve dilutions required by the assay. Then, the samples were heated at 30° C. and vortexed at 300 rpm. Samples were plated into 96-well plates and RiboGreen reagent was added into each well. Following incubation in the dark, fluorescence was measured from the wells, and plotted against the standard curve. Nucleic acid concentration obtained from the Triton-treated samples were used for total cargo concentration quantification. Only TE diluted sample fluorescence values were used to determine the non-encapsulated (free) cargo, and their ratio was used to determine the encapsulation efficiency (EE %).

[3] = tested on: mouse organs; assay: In vivo activity screening in mice: organ mean total flux (p/s) of luciferase activity after injection of F2 LNP pools (Table 6, FIG. 7A-7C); details: Mouse 1, dose 0.3 mg/kg, luciferase mRNA
In short: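 Luciferase output per organ is reported as mean total flux (p/s) from IVIS regions of interest. Organs were collected from perfused C57BL/6J mice and imaged 10-15 min after s.c. D-luciferin, 4-6 h after i.v. dosing. Dosing was 0.25-3 mg/kg luciferase mRNA in F2 LNP pools.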

Row | SMILES | Particle Size (nm) [1] [nm] | PDI [1] | PDI N/P:6 ([1]; Formulation F1, N/P 6) | Size (nm) N/P:6 ([1]; Formulation F1, N/P 6) [nm] | PDI N/P:6 ([1]; Formulation F2, N/P 6) | Size (nm) N/P:6 ([1]; Formulation F2, N/P 6) [nm] | PDI N/P:6 ([1]; Formulation F3, N/P 6) | Size (nm) N/P:6 ([1]; Formulation F3, N/P 6) [nm] | PDI N/P:6 ([1]; Formulation F4, N/P 6) | Size (nm) N/P:6 ([1]; Formulation F4, N/P 6) [nm] | EE % [2] [%] | mRNA Content [2] [µg/mL] | EE (%) N/P:6 ([2]; Formulation F1, N/P 6) [%] | EE (%) N/P:6 ([2]; Formulation F2, N/P 6) [%] | EE (%) N/P:6 ([2]; Formulation F3, N/P 6) [%] | EE (%) N/P:6 ([2]; Formulation F4, N/P 6) [%] | Organ Mean Total Flux Femur [3] | Organ Mean Total Flux Heart [3] | Organ Mean Total Flux Kidney [3] | Organ Mean Total Flux Liver [3] | also measured
1 | CCCCCCCC/C=C\CCCCCCCC(=O)OCC(COC(=O)CCCCCCC/C=C\CCCCCCCC)(COC(=O)CCC(CCCCCC)OC(=O)NCCN1CCCC1)COC(=O)CC12CC3CC(CC(C3)C1)C2 (stereo not drawn) [Compound 3, [2-[[2-(1-adamantyl)acetyl]oxymethyl]-2-[[(Z)-octadec-9-enoyl]oxymethyl]-3-[4-(2-pyrrolidin-1ylethylcarbamoyloxy)decanoyloxy]propyl](Z)-octadec-9-enoate] | 89.1 | 0.08 | 0.09 | 74 ± 1 | 0.01 | 92 ± 1 | 0.07 | 102 ± 1 | 0.14 | 73 ± 1 | 96 | 83 | 98 | 99 | 98 | 98 | 1.3 p/s (×10^6) | 0.1 p/s (×10^6) | 0.1 p/s (×10^6) | 29.1 p/s (×10^6) | Organ Mean Total Flux Lung [3]: 0.7 p/s (×10^6); Organ Mean Total Flux Muscle [3]: 0.5 p/s (×10^6); Organ Mean Total Flux Pancreas [3]: 0.2 p/s (×10^6); Organ Mean Total Flux Spleen [3]: 1.4 p/s (×10^6)
2 | CCCCCCCC/C=C\CCCCCCCC(=O)OCC(COC(=O)CCCCCCC/C=C\CCCCCCCC)(COC(=O)CCC(CCCCCC)OC(=O)NCCN1CCCC1)COC(=O)CCC(OCCCCCCCC)OCCCCCCCC (stereo not drawn) [Compound 4, [2-(4,4-dioctoxybutanoyloxymethyl)-2-[[(Z)-octadec-9-enoyl]oxymethyl]-3-[4-(2-pyrrolidin-1-ylethylcarbamoyloxy)decanoyloxy]propyl](Z)-octadec-9-enoate] | 93.4 | 0.022 | 0.063 | 78 ± 2 | 0.069 | 93 ± 1 | 0.08 | 108 ± 2 | 0.12 | 73 ± 2 | 99 | 99.1 | 100 | 100 | 100 | 100 | 15.6 p/s (×10^6) | 4.4 p/s (×10^6) | 0.8 p/s (×10^6) | 105.0 p/s (×10^6) | PDI N/P:3 ([1]; Formulation F1, N/P 3): 0.092; Size (nm) N/P:3 ([1]; Formulation F1, N/P 3): 86 ± 10 nm; PDI N/P:3 ([1]; Formulation F2, N/P 3): 0.041; Size (nm) N/P:3 ([1]; Formulation F2, N/P 3): 97 ± 1 nm; PDI N/P:3 ([1]; Formulation F3, N/P 3): 0.089; Size (nm) N/P:3 ([1]; Formulation F3, N/P 3): 116 ± 6 nm; PDI N/P:3 ([1]; Formulation F4, N/P 3): 0.068; Size (nm) N/P:3 ([1]; Formulation F4, N/P 3): 73 ± 0 nm; EE (%) N/P:3 ([2]; Formulation F1, N/P 3): 98%; EE (%) N/P:3 ([2]; Formulation F2, N/P 3): 98%; EE (%) N/P:3 ([2]; Formulation F3, N/P 3): 94%; EE (%) N/P:3 ([2]; Formulation F4, N/P 3): 98%; Organ Mean Total Flux Lung [3]: 39.9 p/s (×10^6); Organ Mean Total Flux Muscle [3]: 18.4 p/s (×10^6); Organ Mean Total Flux Pancreas [3]: 5.0 p/s (×10^6); Organ Mean Total Flux Spleen [3]: 17.6 p/s (×10^6)

— patent publication US20260234115A1, “LIPID COMPOUNDS, COMPOSITIONS, AND USES THEREOF” (Liberate Bio, Inc., priority 2023, published 2026)
